This test deals with recombinant Mcl-1 (residues 172-327) (Homo sapiens (Human), UniProt Q07820). Nature of the test: Fluorescence polarization anisotropy competition assay (FITC-Bak or FITC-Bim BH3 peptide), Mcl-1. The test is classed as binding. Particulars: FITC-labeled BH3 peptide (Bak or Bim) displacement; Ki converted from IC50; printed as range bins; read-out: Ki for Inhibition of Mcl-1.

The values below come from US11208415B2, “Substituted indole Mcl-1 inhibitors” (Vanderbilt University, priority 2014, dated 2021).

Where only a bound is given, the exact number is not on record here.

For orientation: Ki means a dissociation constant, usually derived from enzyme kinetics or from competition with a known ligand.

recombinant Mcl-1 (residues 172-327), sequence (Q07820 172-327): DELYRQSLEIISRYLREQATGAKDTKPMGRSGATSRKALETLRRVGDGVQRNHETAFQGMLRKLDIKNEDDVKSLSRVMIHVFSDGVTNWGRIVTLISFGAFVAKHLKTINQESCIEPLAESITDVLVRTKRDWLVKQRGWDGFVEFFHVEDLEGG

`Cc1cc(OCCCc2c3n(c4c(-c5c(C)nn(C)c5C)c(Cl)ccc24)CCCN(c2cc(C(=O)O)c4cn(C)nc4c2)C3=O)cc(C)c1Cl` [Example I-366, 6-(8-chloro-1-(3-(4-chloro-3,5-dimethylphenoxy)propyl)-1-oxo-7-(1,3,5-trimethyl-1H-pyrazol-4-yl)-4,5-dihydro-1H-[1,4]diazepino[1,2-a]indol-2(3H)-yl)-2-methyl-2H-indazole-4-carboxylic acid]: the Ki was less than 0.05 µM.
